pIC50: −log10 of the molar value.
What follows are molecules tested against T1, human TRPM8 (Homo sapiens, UniProt Q7Z2W7) (assay: Luminescence readout assay for measuring intracellular calcium, icilin activation). Settings: CHO cells expressing human TRPM8, aequorin luminescence, 1 μM icilin activation; read-out: hTRPM8 IC50.
T1 construct: expressed in transfected cells; host or cells: Chinese hamster ovary (CHO) cells, T-REx tetracycline-inducible system, co-transfected with aequorin
Format: cell-based
Outline: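 The read-out was luminescence reporting intracellular calcium, recorded by a CCD-based luminometer. Compounds were preincubated for 2.5 min before agonist challenge with 1 μM icilin. Human TRPM8 was expressed in a stable T-REx CHO line, induced with 0.5 μg/mL tetracycline the day before.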

T1 sequence (Q7Z2W7 whole entry): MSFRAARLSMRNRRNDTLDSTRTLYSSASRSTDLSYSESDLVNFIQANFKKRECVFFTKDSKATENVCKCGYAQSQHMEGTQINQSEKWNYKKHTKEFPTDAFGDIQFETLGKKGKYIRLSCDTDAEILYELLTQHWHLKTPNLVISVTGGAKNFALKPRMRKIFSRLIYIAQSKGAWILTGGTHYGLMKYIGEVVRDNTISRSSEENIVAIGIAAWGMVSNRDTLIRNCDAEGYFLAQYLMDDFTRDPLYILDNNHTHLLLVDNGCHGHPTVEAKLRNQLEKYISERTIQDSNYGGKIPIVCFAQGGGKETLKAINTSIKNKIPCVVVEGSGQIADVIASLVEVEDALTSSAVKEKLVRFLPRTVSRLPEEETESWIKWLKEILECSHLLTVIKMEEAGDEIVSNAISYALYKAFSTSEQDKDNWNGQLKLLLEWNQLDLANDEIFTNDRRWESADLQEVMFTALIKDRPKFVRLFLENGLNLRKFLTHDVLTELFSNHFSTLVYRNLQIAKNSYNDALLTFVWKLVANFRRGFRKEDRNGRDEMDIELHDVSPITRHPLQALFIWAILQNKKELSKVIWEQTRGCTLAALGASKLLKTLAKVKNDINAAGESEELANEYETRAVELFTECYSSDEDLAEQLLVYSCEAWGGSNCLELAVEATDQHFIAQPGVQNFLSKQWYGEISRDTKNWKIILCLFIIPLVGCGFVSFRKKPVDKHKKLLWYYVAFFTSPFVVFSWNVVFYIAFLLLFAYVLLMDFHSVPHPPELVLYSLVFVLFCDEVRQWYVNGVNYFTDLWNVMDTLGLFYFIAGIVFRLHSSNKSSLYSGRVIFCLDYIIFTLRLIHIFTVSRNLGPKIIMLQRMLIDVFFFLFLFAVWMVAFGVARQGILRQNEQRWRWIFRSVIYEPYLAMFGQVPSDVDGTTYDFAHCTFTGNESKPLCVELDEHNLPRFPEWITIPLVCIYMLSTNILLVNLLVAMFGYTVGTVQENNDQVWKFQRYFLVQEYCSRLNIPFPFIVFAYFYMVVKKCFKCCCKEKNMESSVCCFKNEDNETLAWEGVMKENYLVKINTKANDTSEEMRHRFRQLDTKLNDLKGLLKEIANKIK

In order of rising pIC50:
1. COc1ccc(C(=O)N[C@@H](c2ccc(OC(F)(F)F)c(F)c2)c2ncccc2F)[nH]c1=O [Example 404, (S)-N-((3-fluoro-4-(trifluoromethoxy)phenyl)(3-fluoropyridin-2-yl)methyl)-5-methoxy-6-oxo-1,6-dihydropyridine-2-carboxamide]  5.45
2. O=C(N[C@@H](c1ccc(C(F)(F)F)cc1)c1ncccc1C(F)(F)F)c1ccc(C(=O)O)nc1 [Example 285, (S)-5-(((4-(Trifluoromethyl)phenyl)(3-(trifluoromethyl)-pyridin-2-yl)methyl)carbamoyl)picolinic Acid 2,2,2-trifluoroacetate]  5.67
3. COc1ncc(C(=O)N[C@@H](c2ccc(C(F)(F)F)cc2)c2ncccc2F)cn1 [Example 264, (S)—N-((3-Fluoropyridin-2-yl)(4-(trifluoromethyl)phenyl)methyl)-2-methoxypyrimidine-5-carboxamide]  6.60
4. Cc1ccnc(C(NC(=O)c2ccc(=O)[nH]c2)c2ccc(OC(F)(F)F)c(F)c2)c1 (centres unmarked) [Example 423, N-((3-fluoro-4-(trifluoromethoxy)phenyl)(4-methylpyridin-2-yl)methyl)-6-oxo-1,6-dihydropyridine-3-carboxamide]  6.86
5. CCNc1ccc(C(=O)N[C@@H](c2ccc(C(F)(F)F)cc2)c2ncccc2C(F)(F)F)cn1 [Example 263, (S)-6-(Ethylamino)-N-((4-(trifluoromethyl)phenyl)(3-(trifluoromethyl)pyridin-2-yl)methyl)nicotinamide]  6.88
6. O=C(N[C@@H](c1ccc(C(F)(F)F)cc1)c1ncccc1C(F)(F)F)c1cccc(I)c1 [Example 117, (S)-3-iodo-N-((4-(trifluoromethyl)phenyl)(3-(trifluoromethyl)pyridin-2-yl)methyl)benzamide]  7.15
7. O=C(N[C@@H](c1ccc(C(F)(F)F)cc1)c1ncccc1F)c1cnc(Cl)c(Br)c1 [Example 198, (S)-5-bromo-6-chloro-N-((3-fluoropyridin-2-yl)(4-(trifluoromethyl)phenyl)methyl)nicotinamide]  7.25
8. O=C(NC(c1ccc(OC(F)(F)F)c(F)c1)c1cccc(F)c1F)c1ccc(=O)[nH]c1 (centres unmarked) [Example 412, N-((2,3-difluorophenyl)(3-fluoro-4-(trifluoromethoxy)phenyl)methyl)-6-oxo-1,6-dihydropyridine-3-carboxamide]  7.32
9. Cc1ncoc1C(=O)N[C@@H](c1ccc(C(F)(F)F)cc1)c1ncccc1C(F)(F)F [Example 190, (S)-4-methyl-N-((4-(trifluoromethyl)phenyl)(3-(trifluoromethyl)pyridin-2-yl)methyl)oxazole-5-carboxamide]  7.48
10. O=C(N[C@@H](c1ccc(C(F)(F)F)cc1)c1ncccc1C(F)(F)F)c1ccc2cn[nH]c2c1 [Example 175, (S)-N-((4-(trifluoromethyl)phenyl)(3-(trifluoromethyl)pyridin-2-yl)methyl)-1H-indazole-6-carboxamide]  7.52
11. O=C(N[C@@H](c1ccc(C(F)(F)F)cc1)c1ncccc1C(F)(F)F)c1ccc(Cl)nc1 [Example 135, (S)-6-chloro-N-((4-(trifluoromethyl)phenyl)(3-(trifluoromethyl)pyridin-2-yl)methyl)nicotinamide]  7.71
12. O=C1Cc2cc(C(=O)N[C@@H](c3ccc(C(F)(F)F)cc3)c3ncccc3F)ccc2N1 [Example 70, (S)-N-((3-fluoropyridin-2-yl)(4-(trifluoromethyl)phenyl)methyl)-2-oxoindoline-5-carboxamide]  7.82
13. Cc1cccnc1[C@@H](NC(=O)c1ccc2oc(=O)[nH]c2c1)c1ccc(OC(F)(F)F)c(F)c1 [Example 358, (S)-N-((3-fluoro-4-(trifluoromethoxy)phenyl)(3-methylpyridin-2-yl)methyl)-2-oxo-2,3-dihydrobenzo[d]oxazole-5-carboxamide]  7.85
14. O=C(N[C@@H](c1ccc(C(F)(F)F)cc1)c1ccccn1)c1ccc2oc(=O)[nH]c2c1 [Example 361, (S)-2-oxo-N-(pyridin-2-yl(4-(trifluoromethyl)phenyl)methyl)-2,3-dihydrobenzo[d]oxazole-5-carboxamide]  8.24
